Experimental data from patent US8017401B2, “Method for determining redox activity and screening compounds based on redox activity” (State of Oregon acting by and through the State Board of …, priority 2005, dated 2011).
Read-outs that look alike come from different tables or passages of the source.

Key:
[1] = Redox activity of activators and inhibitors of membrane-bound transport proteins (overview statement); type: physicochemical; conditions: activators and inhibitors of the sarcoplasmic reticulum calcium release channel; no reference given
[2] = Redox activity by reaction with photo-excited dye under aerobic conditions (probe reduction at 470 nm and dye photo-bleaching); type: physicochemical; conditions: for redox activity (electron donor or electron acceptor): conclusion from the photo-excited dye assay of the respective example
[3] = modulators of L-type calcium channel, sodium channel, mitochondrial ATP-dependent potassium channel; references 1-3; cited from earlier work
[4] = Reaction of NBD-Cl with KO2: stopped-flow kinetics, absorbance and fluorescence calibration; type: physicochemical
[5] = target: xanthine-xanthine oxidase reaction (Homo sapiens, UniProt P47989); assay: Superoxide measurement in the xanthine-xanthine oxidase reaction; type: biochemical
Chain of xanthine-xanthine oxidase reaction (P47989 whole entry): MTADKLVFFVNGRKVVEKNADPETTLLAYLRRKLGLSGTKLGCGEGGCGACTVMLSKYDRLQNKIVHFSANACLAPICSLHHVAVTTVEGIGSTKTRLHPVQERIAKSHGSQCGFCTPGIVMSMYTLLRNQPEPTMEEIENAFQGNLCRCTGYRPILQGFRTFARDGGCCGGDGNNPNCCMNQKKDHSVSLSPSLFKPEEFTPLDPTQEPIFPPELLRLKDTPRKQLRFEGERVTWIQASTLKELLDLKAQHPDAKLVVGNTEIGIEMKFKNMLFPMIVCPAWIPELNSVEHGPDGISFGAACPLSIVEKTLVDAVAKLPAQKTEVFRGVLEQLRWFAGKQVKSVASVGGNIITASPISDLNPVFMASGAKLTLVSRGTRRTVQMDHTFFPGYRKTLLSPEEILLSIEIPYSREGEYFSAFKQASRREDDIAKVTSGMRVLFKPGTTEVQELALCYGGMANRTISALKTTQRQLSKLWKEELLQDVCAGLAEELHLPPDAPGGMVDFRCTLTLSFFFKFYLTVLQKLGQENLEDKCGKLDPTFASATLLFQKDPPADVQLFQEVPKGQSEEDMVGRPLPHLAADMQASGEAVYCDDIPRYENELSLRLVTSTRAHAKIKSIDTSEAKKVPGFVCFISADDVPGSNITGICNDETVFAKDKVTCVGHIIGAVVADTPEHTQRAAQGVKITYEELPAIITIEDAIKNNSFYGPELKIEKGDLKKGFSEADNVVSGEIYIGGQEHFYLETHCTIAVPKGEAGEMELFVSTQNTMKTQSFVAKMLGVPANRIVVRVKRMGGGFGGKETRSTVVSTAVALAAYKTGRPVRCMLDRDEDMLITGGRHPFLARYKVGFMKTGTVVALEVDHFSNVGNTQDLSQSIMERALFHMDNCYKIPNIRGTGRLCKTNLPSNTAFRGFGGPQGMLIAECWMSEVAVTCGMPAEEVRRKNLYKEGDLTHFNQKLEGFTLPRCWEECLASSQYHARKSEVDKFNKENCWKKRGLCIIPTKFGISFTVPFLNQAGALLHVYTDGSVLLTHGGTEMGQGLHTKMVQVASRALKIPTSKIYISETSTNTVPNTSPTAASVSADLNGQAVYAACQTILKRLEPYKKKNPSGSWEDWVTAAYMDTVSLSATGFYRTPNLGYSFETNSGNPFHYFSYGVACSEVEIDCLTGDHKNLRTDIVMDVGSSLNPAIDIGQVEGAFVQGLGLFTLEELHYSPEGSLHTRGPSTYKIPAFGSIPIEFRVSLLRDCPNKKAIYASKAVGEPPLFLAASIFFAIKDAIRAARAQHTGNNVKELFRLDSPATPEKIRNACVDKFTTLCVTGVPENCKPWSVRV

[6] = tested on: sarcoplasmic reticulum Ca^2+ release channel; conditions: cited from earlier work
[7] = 10 μM methylene blue, 100 μM NADH, 50 μM NBD-Cl, 10 mM Tris-HCl in water, pH 7.4, doxorubicin 25 and 50 μM vs zero
[8] = 10 μM erythrosin, 50 μM NBD-Cl, 80% dimethyl sulfoxide / 20% 1 mM Tris-HCl, pH 7.4, compound 200 μM (diethyl benzocaine 2 mM) vs control

| Compound | redox activity (electron donor or electron acceptor) [1] | redox activity (electron donor or electron acceptor) [2] | further results |
| --- | --- | --- | --- |
| N[C@@H](CS)C(=O)O [cysteine] | electron donors |  |  |
| Cn1c(=O)c2c(ncn2C)n(C)c1=O [caffeine] | electron acceptors |  |  |
| CC(C)COCC(CN(Cc1ccccc1)c1ccccc1)N1CCCC1 (stereo not shown) [bepridil] |  | electron donor | rate of XTT reduction (increasing absorbance at 470 nm) ([2]; 10 μM eosin, 50 μM XTT, 1 mM Tris-HCl in water, pH 7.4, bepridil 20 and 200 μM vs zero): increased |
| N[C@@H](CSSC[C@H](N)C(=O)O)C(=O)O [cystine] | electron acceptors |  |  |
| CC[C@H]1[C@@H]2C[C@H]3[C@@H]4N(C)c5ccccc5[C@]45C[C@@H]([C@@H]2[C@H]5O)N3[C@@H]1O [ajmalin] |  | electron donors | rate of NBD-Cl reduction (increasing absorbance at 470 nm) [2, 8]: increased; relative degree of electron donor activity ([2]; 10 μM erythrosin, 50 μM NBD-Cl, 80% dimethyl sulfoxide, from level of increase of NBD-Cl reduction rate): stronger electron donor than diethyl benzocaine |
| O=C1c2c(O)ccc(O)c2C(=O)c2c(NCCNCCO)ccc(NCCNCCO)c21 [mitoxantrone] | electron acceptors |  |  |
| 2,3-bis(2-methoxy-4-nitro-5-sulphophenyl)-5-[(phenylamino)carbonyl]-2H-tetrazolium hydroxide [XTT] |  |  | second-order rate constants for reduction by superoxide [4]: 8.59±0.81×10^4 M^−1s^−1; effect of the probe on the xanthine-xanthine oxidase reaction rate [5]: about a two-fold increase; Superoxide at 470 nm (initial rate of superoxide formation) ([5]; pH 7.4): 0.225 ± 0.010 |
| CN(C)C(=O)/N=N/C(=O)N(C)C [diamide] | electron acceptors |  |  |
| Oc1ccc(-c2[o+]c3cc(O)cc(O)c3cc2O)cc1 [pelargonidine] |  |  | redox activity (electron donor or electron acceptor) [3]: electron acceptor |
| ryanodine |  |  | concentrations at which it is a specific activator of the calcium release channel [6]: 1 to 2 µM |
| COc1cc(-c2ccc(-n3nc(-c4ccccc4)n[n+]3-c3ccc([N+](=O)[O-])cc3)c(OC)c2)ccc1-n1nc(-c2ccccc2)n[n+]1-c1ccc([N+](=O)[O-])cc1 [NBT, nitroblue tetrazolium] |  |  | Superoxide at 550 nm (initial rate of superoxide formation) ([5]; pH 7.4): 0.038 ± 0.002 |

Further lines, with some results ahead:

| redox activity (electron donor or electron acceptor) [1] | redox activity (electron donor or electron acceptor) [2] | Compound | further results |
| --- | --- | --- | --- |
| electron donors |  | CCN(CC)CCOC(=O)c1ccc(N)cc1 [procaine] |  |
| electron acceptors | electron acceptor | COc1cccc2c1C(=O)c1c(O)c3c(c(O)c1C2=O)C[C@@](O)(C(=O)CO)C[C@@H]3O[C@H]1C[C@H](N)[C@H](O)[C@H](C)O1 [doxorubicin] | rate of NBD-Cl reduction (increasing absorbance at 470 nm) [2, 7]: decreased; rate of methylene blue bleaching (decreasing absorbance at 663 nm) [2, 7]: decreased |
|  | electron donors | diethyl benzocaine | rate of NBD-Cl reduction (increasing absorbance at 470 nm) [2, 8]: increased; redox activity (electron donor or electron acceptor) [3]: electron donor |
| electron donors |  | N[C@@H](CCC(=O)N[C@@H](CS)C(=O)NCC(=O)O)C(=O)O [glutathione] |  |
| electron donors | electron donors | CCCCNc1ccc(C(=O)OCCN(C)C)cc1 [tetracaine] | rate of NBD-Cl reduction (increasing absorbance at 470 nm) [2, 8]: increased |
